Experimental data as given in patent publication US5763435A, “Sulfate conjugates of ursodeoxycholic acid, and their beneficial use in inflammatory disorders” (priority 1995, dated 1998).

Tests used:
[1] = system: Principal Bile Acids in Liver; assay: Bile acid composition of liver tissue after oral administration (GC-MS); assay type: in vivo, Sprague-Dawley rats
Method: Male Sprague-Dawley rats (Harlan Sprague-Dawley, Inc., Indianapolis, Ind.), weighing 210-290 g, were maintained on a 12-hour light-dark cycle and fed standard laboratory chow ad libitum for 3 days. The animals were then transferred to metabolic cages in which they were housed individually and fed the same diet. UDCA, UDCA 3-sulfate, UDCA 7-sulfate, and UDCA 3,7-disulfate were administered by gavage at a dose of 250 mg/day for 4 consecutive days. Each group comprised 3-6 rats. Body weights of the animals were measured each day. On day 5, the animals were killed by exsanguination under ether anesthesia. Plasma was collected and frozen at -20° C. The liver was removed, rinsed in normal saline, and flash-frozen in liquid nitrogen. Urine and feces were collected every 24 hours and frozen at -20° C. All animals received humane care in compliance with the "Guide for the Care and Use of Laboratory Animals" prepared by the National Academy of Sciences (National Institutes of Health publication no. 86-23, revised in 1985).
Samples of liver (100 mg) were ground to a fine paste, and bile acids were extracted by reflux and passage through a column of Lipidex 1000 as described above for intestinal contents and feces. Group separation of bile acids, according to their mode of conjugation was achieved by lipophilic anion-exchange chromatography. Extracts from each animal were pooled, and bile acids and their conjugates were separated using Lipidex-DEAP and stepwise elution of the gel bed with the following buffers: 0.1 mol/L acetic acid in 72% ethanol (unconjugated bile acids); 0.3 mol/L acetic acid in 72% ethanol, pH 5.0 (glycine conjugates); 0.15 mol/L acetic acid in 72% ethanol, pH 6.5 (taurine conjugates); and 0.3 mol/L acetic acid in 72% ethanol, pH 9.6 (sulfate conjugates). After evaporation of the buffers, sulfated bile acids were solvolyzed, whereas amidated conjugates were hydrolyzed with 50 U of cholylglycine hydrolase (Sigma Chemical Co.) in 2.5 mL of 0.2 mol/L phosphate buffer, pH 5.6, at 37° C. overnight. The resulting unconjugated bile acids were isolated on Lipidex-DEAP, and the methyl ester-trimethylsilyl ether derivatives were prepared as described above.
GC-MS analysis was performed using a Finnigan 4635 mass spectrometer (Finnigan Inc., San Jose, Calif.) that housed an identical gas chromatography column operated under the same conditions. Electron ionization (70 eV) mass spectra were recorded over the mass range of 50-800 daltons by repetitive scanning of the eluting components. Identification of bile acids was made on the basis of the gas chromatography retention index relative to a homologous series of n-alkanes, referred to as the methylene unit value, and the mass spectrum compared with authentic standards. Quantification of bile acids was achieved using gas chromatography by comparing the peak height response of the individual bile acids with the peak height response obtained from the internal standard.
Data are expressed as mean±SEM or as mean values of all animals when extracts were pooled before analysis. Results from different groups were compared using paired and unpaired two-tailed Student's t-test. P values of <0.05 were considered statistically significant.

[2] = Hepatic biotransformation of infused bile acid (negative ion FAB-MS, conjugate separation); assay type: in vivo, Sprague-Dawley rats; details: i.v. infusion, listed as C-3 sulfate of UDCA
Method: Adult male Sprague-Dawley rats (body weight 200-230 g) were anesthetized by an intraperitoneal injection of pentobarbital (Nembutal, 7.5 mg/100 g body weight), and maintained under sedation by additional doses. The right jugular vein and the common bile duct were cannulated using PE-50 polyethylene tubing (Clay-Adams, Parsippany, N.J.). Body temperature was maintained throughout the experiment at 37° C. using a rectal probe and a thermostatically controlled heating pad (Harvard Apparatus Co., Inc., Millis, Mass.). Saline was infused at a rate of 1.0 ml/h using a Harvard pump (Harvard Apparatus Co., Inc.) into the jugular vein for a control period of 2h. After collecting two 10 minute bile samples for base-line analysis, the bile acids were individually infused intravenously (i.v.) for 30 minutes in stepwise increasing doses (0.5, 1.0, and 2.0 μmol/min/100 g body weight). Bile acid solutions were prepared in 3% human albumin in 0.45% saline. Six animals were used for each experiment and bile was collected every 10 minutes into preweighed tubes. At the end of the experiment, blood was obtained by cardiac puncture, and urine was obtained by aspiration of the bladder. All biological specimens were stored at -20° C. This animal study protocol (#1 B 10044) was approved by the Bioethics committee of the Children's Hospital Medical Center (Cincinnati, Ohio).
Negative ion fast atom bombardment-mass spectrometry (FAB-MS) spectra of bile samples, urine and synthetic compounds were obtained after placing the equivalent of approximately 1 μl of the original bile extract, 10 μl-50 μl of the urine extract and jig quantities of synthetic bile acids dissolved in methanol onto a small drop of a glycerol matrix spotted on a copper target of the FAB probe. This probe was introduced directly into the ion source of the mass spectrometer and a beam of fast atoms of either xenon generated with a saddle field atom gun (ion Tech, Teddington, Middlesex, UK) operated at 8 kV and 20 μA, or cesium generated from cesium iodine (35 kV), was fired at the target containing the sample. Negative ion spectra were obtained over the mass range of 50-1000 Da/e.
For the determination of hepatic biotransformation of the infused bile acid, bile collections from the six animal were pooled and biliary bile acids were determined by GC-MS after extraction, solvolysis, hydrolysis, and derivatization. Quantification of bile acids was achieved using GC, by comparing the peak height response of the individual bile acid with the peak height response obtained from the internal standard, nordeoxycholic acid added to the initial sample of bile. Identification of a bile acid was made on the basis of the retention index relative to a homologous series of n-alkanes, referred to as the methylene unit value (MU) and the fragmentation pattern of the mass spectrum was compared with authentic standards. A list of over 100 mass spectra of authentic bile acid standards and retention indices was recently compiled as a reference source (Lawson, A. M., et al, Mass spectrometry of bile acids, The Bile Acids, Vol. 4, Methods and Applications, pp. 167-267 (1988)).
In the case of the animals infused with UDCA-3S, bile was collected during the final period of bile acid infusion ([…]). Bile acids were solvolyzed and separated into groups based on their mode of conjugation using the lipophilic anion exchange gel, diethylaminohydroxypropyl Sephadex LH-20; Packard Instruments, Groningen, The Netherlands). Bile acid composition was determined in each fraction by GC-MS after hydrolysis and preparation of the Me-TMS ethers.

SMILES: C[C@H](CCC(=O)O)[C@H]1CC[C@H]2[C@@H]3[C@@H](O)C[C@@H]4C[C@H](OS(=O)(=O)O)CC[C@]4(C)[C@H]3CC[C@]12C [UDCA-3S, ursodeoxycholic acid 3-sulfate]
- Chenodeoxycholic acid concentration in liver ([1]; oral gavage 250 mg/day, 4 days): 9.2 nmol/g
- Chenodeoxycholic acid percent of hepatic bile acids ([1]; oral gavage 250 mg/day, 4 days): 2.5%
- Cholic acid concentration in liver ([1]; oral gavage 250 mg/day, 4 days): 86.6 nmol/g
- Cholic acid percent of hepatic bile acids ([1]; oral gavage 250 mg/day, 4 days): 23.9%
- Deoxycholic acid concentration in liver ([1]; oral gavage 250 mg/day, 4 days): 52.6 nmol/g
- Deoxycholic acid percent of hepatic bile acids ([1]; oral gavage 250 mg/day, 4 days): 14.5%
- Lithocholic acid concentration in liver ([1]; oral gavage 250 mg/day, 4 days): 3.2 nmol/g
- Lithocholic acid percent of hepatic bile acids ([1]; oral gavage 250 mg/day, 4 days): 0.9%
- Total bile acid concentration in liver ([1]; oral gavage 250 mg/day, 4 days): 361.7 nmol/g
- UDCA percent of hepatic bile acids ([1]; oral gavage 250 mg/day, 4 days): 15.6%
- Δ^22-UDCA concentration in liver ([1]; oral gavage 250 mg/day, 4 days): 31.3 nmol/g
- Δ^22-UDCA percent of hepatic bile acids ([1]; oral gavage 250 mg/day, 4 days): 8.6%
- Δ^22-β-Muricholic acid concentration in liver ([1]; oral gavage 250 mg/day, 4 days): 36.3 nmol/g
- Δ^22-β-Muricholic acid percent of hepatic bile acids ([1]; oral gavage 250 mg/day, 4 days): 10.0%
- Δ^22-ω-Muricholic acid concentration in liver ([1]; oral gavage 250 mg/day, 4 days): 6.3 nmol/g
- Δ^22-ω-Muricholic acid percent of hepatic bile acids ([1]; oral gavage 250 mg/day, 4 days): 1.7%
- α-Muricholic acid concentration in liver ([1]; oral gavage 250 mg/day, 4 days): 6.0 nmol/g
- α-Muricholic acid percent of hepatic bile acids ([1]; oral gavage 250 mg/day, 4 days): 1.6%
- β-Muricholic acid concentration in liver ([1]; oral gavage 250 mg/day, 4 days): 65.4 nmol/g
- β-Muricholic acid percent of hepatic bile acids ([1]; oral gavage 250 mg/day, 4 days): 18.1%
- ω-Muricholic acid concentration in liver ([1]; oral gavage 250 mg/day, 4 days): 8.1 nmol/g
- ω-Muricholic acid percent of hepatic bile acids ([1]; oral gavage 250 mg/day, 4 days): 2.2%
- Hepatic UDCA concentration change (in words) ([1]; oral, vs control): increased concentrations and proportions of liver tissue UDCA
- Conjugation of UDCA in liver tissue ([1]; oral, listed as C-3 sulfate): biotransformed by conjugation, mainly with taurine
- Conjugation of UDCA in liver tissue ([1]; oral, listed as UDCA 3-sulfate): significant desulfation and amidation
- Hepatic biotransformation / form secreted in bile (in words) [2]: secreted into bile to a limited extent unchanged, but also underwent appreciable amidation with taurine and glycine and further hydroxylation
